Laboratory results published in US12077503B2, “Substituted cyclic amides and their use as herbicides” (FMC CORPORATION, priority 2015, dated 2024).

What was measured:
Format in all cases: in vivo
[1] = tested on: ragweed (common ragweed, Ambrosia elatior); experiment: Test A preemergence; conditions: Ambrosia artemisiifolia, pre-emergence, 240 h, 0 to 100 scale where 0 is no effect and 100 is complete control, read-out: Ragweed plant response rating
How it was run: (§1)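 Visual injury, scored on a 0–100 scale relative to untreated controls, was recorded about 10 d after application. Treatments were a preemergence soil spray over planted seeds or a postemergence spray on plants at the one- to two-leaf stage, 2 to 10 cm tall, all in loam soil–sand blend in the greenhouse.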

Kochia (Kochia scoparia) [2] = experiment: Test A preemergence; conditions: Bassia scoparia, pre-emergence, 240 h, 0 to 100 scale where 0 is no effect and 100 is complete control, read-out: Kochia plant response rating
How it was run: as §1

[3] = tested on: barnyardgrass (Echinochloa crus-galli); experiment: Test A preemergence; conditions: Echinochloa crus-galli, pre-emergence, 240 h, 0 to 100 scale where 0 is no effect and 100 is complete control, read-out: Barnyardgrass plant response rating
How it was run: as §1

[4] = tested on: pigweed (Amaranthus retroflexus); experiment: Test A preemergence; conditions: Amaranthus retroflexus, pre-emergence, 240 h, 0 to 100 scale where 0 is no effect and 100 is complete control, read-out: Pigweed plant response rating
[5] = tested on: giant foxtail (Setaria faberii); experiment: Test A preemergence; conditions: Setaria faberi, pre-emergence, 240 h, 0 to 100 scale where 0 is no effect and 100 is complete control, read-out: Foxtail, Giant plant response rating
How it was run: as §1

[6] = tested on: ryegrass, Italian (Italian ryegrass, Lolium multiflorum); experiment: Test A preemergence; conditions: Lolium multiflorum, pre-emergence, 240 h, 0 to 100 scale where 0 is no effect and 100 is complete control, read-out: Ryegrass, Italian plant response rating
How it was run: as §1

[7] = tested on: sedge, umbrella (small-flower umbrella sedge, Cyperus difformis); experiment: Test B flooded paddy test; conditions: Cyperus difformis, 250 g ai/ha, Flood; 0 to 100 scale where 0 is no effect and 100 is complete control; read-out: Sedge, Umbrella plant response rating
How it was run: (§2)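 Rating scale 0–100 (visual, vs untreated controls) after a 13–15 d greenhouse period; application to the flood layer, 3 cm above soil and maintained; plants at 2-leaf stage when treated.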

rice (Oryra sativa) = experiment: Test B flooded paddy test; conditions: Oryza sativa, 250 g ai/ha, Flood; 0 to 100 scale where 0 is no effect and 100 is complete control; read-out: Rice plant response rating
How it was run: as §2

[8] = tested on: ducksalad (Heteranthera limosa); experiment: Test B flooded paddy test; conditions: Heteranthera limosa, 250 g ai/ha, Flood; 0 to 100 scale where 0 is no effect and 100 is complete control; read-out: Ducksalad plant response rating
How it was run: as §2

[9] = tested on: barnyardgrass (Echinochloa crus-galli); experiment: Test B flooded paddy test; conditions: Echinochloa crus-galli, 250 g ai/ha, Flood; 0 to 100 scale where 0 is no effect and 100 is complete control; read-out: Barnyardgrass plant response rating
How it was run: as §2

[10] = tested on: ragweed (common ragweed, Ambrosia elatior); experiment: Test A postemergence; conditions: Ambrosia artemisiifolia, post-emergence, 240 h, 125 g ai/ha, postemergence, visual injury vs untreated controls after approx. 10 d; 0 = no effect, 100 = complete control; read-out: Ragweed plant response rating (0 to 100 scale)
How it was run: as §1

[11] = tested on: wheat (Triticum aestivum); experiment: Test A postemergence; conditions: Triticum aestivum, post-emergence, 240 h, 125 g ai/ha, postemergence, visual injury vs untreated controls after approx. 10 d; 0 = no effect, 100 = complete control; read-out: Wheat plant response rating (0 to 100 scale)
How it was run: as §1

Kochia (Kochia scoparia) [12] = experiment: Test A postemergence; conditions: Bassia scoparia, post-emergence, 240 h
How it was run: as §1

[13] = tested on: barnyardgrass (Echinochloa crus-galli); experiment: Test A postemergence; conditions: Echinochloa crus-galli, post-emergence, 240 h
How it was run: as §1

[14] = tested on: Galium (catchweed bedstraw, Galium aparine); experiment: Test A postemergence; conditions: Galium, post-emergence, 240 h
How it was run: as §1

[15] = tested on: blackgrass (Alopecurus myosuroides); experiment: Test A postemergence; conditions: Alopecurus myosuroides, post-emergence, 240 h
How it was run: as §1

[16] = tested on: pigweed (Amaranthus retroflexus); experiment: Test A postemergence; conditions: Amaranthus retroflexus, post-emergence, 240 h, 125 g ai/ha, postemergence, visual injury vs untreated controls after approx. 10 d; 0 = no effect, 100 = complete control; read-out: Pigweed plant response rating (0 to 100 scale)
How it was run: as §1

[17] = tested on: giant foxtail (Setaria faberii); experiment: Test A postemergence; conditions: Setaria faberi, post-emergence, 240 h
How it was run: as §1

corn (Zea mays) = experiment: Test A postemergence; conditions: Zea mays, post-emergence, 240 h
How it was run: as §1

[18] = tested on: ryegrass, Italian (Italian ryegrass, Lolium multiflorum); experiment: Test A postemergence; conditions: Lolium multiflorum, post-emergence, 240 h, 125 g ai/ha, postemergence, visual injury vs untreated controls after approx. 10 d; 0 = no effect, 100 = complete control; read-out: Ryegrass, Italian plant response rating (0 to 100 scale)
How it was run: as §1

[19] = 125 g ai/ha, preemergence, visual injury rating, approximately 10 d

COc1ccc(C(F)(F)F)cc1[C@H]1CN(C)C(=O)[C@@H]1C(=O)Nc1ccccc1SC [Compound 1185]
40%: plant injury at 125 g/ha [11]
100%: pest or weed control at 125 g/ha [3, 19]
50%: pest or weed control at 31 g/ha ([5]; 31 g ai/ha, Preemergence) | pest or weed control at 250 g/ha [8] | pest or weed control at 125 g/ha ([13]; 125 g ai/ha, postemergence, visual injury vs untreated controls after approx. 10 d, 0 = no effect, 100 = complete control, read-out: Barnyardgrass plant response rating (0 to 100 scale)) | pest or weed control at 125 g/ha ([15]; 125 g ai/ha, postemergence, visual injury vs untreated controls after approx. 10 d, 0 = no effect, 100 = complete control, read-out: Blackgrass plant response rating (0 to 100 scale))
30%: pest or weed control at 31 g/ha ([17]; Postemergence, 31 g ai/ha, visual injury after approx. 10 d, 0 to 100 scale, 0 no effect, 100 complete control, read-out: Plant response rating, Foxtail, Giant)
0%: pest or weed control at 31 g/ha ([1]; 31 g ai/ha, Preemergence) | pest or weed control at 125 g/ha [1, 19] | pest or weed control at 31 g/ha (Kochia (Kochia scoparia) [2]; 31 g ai/ha, Preemergence) | pest or weed control at 125 g/ha (Kochia (Kochia scoparia) [2]; [19]) | pest or weed control at 31 g/ha ([4]; 31 g ai/ha, Preemergence) | pest or weed control at 125 g/ha [4, 19] | pest or weed control at 31 g/ha ([6]; 31 g ai/ha, Preemergence) | pest or weed control at 250 g/ha [7] | pest or weed control at 250 g/ha (rice (Oryra sativa)) | pest or weed control at 125 g/ha [10] | pest or weed control at 125 g/ha (Kochia (Kochia scoparia) [12]; 125 g ai/ha, postemergence, visual injury vs untreated controls after approx. 10 d, 0 = no effect, 100 = complete control, read-out: Kochia plant response rating (0 to 100 scale)) | pest or weed control at 31 g/ha (Kochia (Kochia scoparia) [12]; Postemergence, 31 g ai/ha, visual injury after approx. 10 d, 0 to 100 scale, 0 no effect, 100 complete control, read-out: Plant response rating, Kochia) | pest or weed control at 125 g/ha ([14]; 125 g ai/ha, postemergence, visual injury vs untreated controls after approx. 10 d, 0 = no effect, 100 = complete control, read-out: Galium plant response rating (0 to 100 scale)) | pest or weed control at 31 g/ha ([14]; Postemergence, 31 g ai/ha, visual injury after approx. 10 d, 0 to 100 scale, 0 no effect, 100 complete control, read-out: Plant response rating, Galium) | pest or weed control at 31 g/ha ([15]; Postemergence, 31 g ai/ha, visual injury after approx. 10 d, 0 to 100 scale, 0 no effect, 100 complete control, read-out: Plant response rating, Blackgrass) | pest or weed control at 125 g/ha [16] | Corn plant response rating (crop injury, 0 = no effect, 100 = complete kill) at 31 g/ha (corn (Zea mays); Postemergence, 31 g ai/ha, visual injury after approx. 10 d, 0 to 100 scale, 0 no effect, 100 complete control)
60%: pest or weed control at 125 g/ha [6, 19] | pest or weed control at 250 g/ha [9] | pest or weed control at 125 g/ha ([17]; 125 g ai/ha, postemergence, visual injury vs untreated controls after approx. 10 d, 0 = no effect, 100 = complete control, read-out: Foxtail, Giant plant response rating (0 to 100 scale))
70%: pest or weed control at 31 g/ha ([3]; 31 g ai/ha, Preemergence)
90%: pest or weed control at 125 g/ha [5, 19]
20%: pest or weed control at 31 g/ha ([13]; Postemergence, 31 g ai/ha, visual injury after approx. 10 d, 0 to 100 scale, 0 no effect, 100 complete control, read-out: Plant response rating, Barnyardgrass) | plant injury at 125 g/ha (corn (Zea mays); 125 g ai/ha, postemergence, visual injury vs untreated controls after approx. 10 d, 0 = no effect, 100 = complete control, read-out: Corn plant response rating (0 to 100 scale)) | pest or weed control at 125 g/ha [18]
